The values below come from patent publication US20090291968A1, “SUBSTITUTED INDAZOLE DERIVATIVES, THEIR MANUFACTURE AND USE AS PHARMACEUTICAL AGENTS” (priority 2006, published 2009).

One may read the IC50 as the concentration that gives 50% inhibition. Low readings indicate greater potency in that assay, high ones weaker potency in that assay.

The test system of this test is HCT 116 cells. Description: CellTiter-Glo assay in HCT 116 cells (cell viability). Type of test: cell-based. The following applies: 120 h; HCT 116 human colon carcinoma cells, 5 days incubation, CellTiter-Glo luminescence. As to the method:
The CellTiter-Glo™ Luminescent Cell Viability Assay (Promega) is a homogeneous method of determining the number of viable cells in culture based on quantitation of the ATP present, which signals the presence of metabolically active cells.
HCT 116 cells (human colon carcinoma, ATCC-No. CCl-247) were cultivated in RPMI 1640 medium with GlutaMAX™ I (Invitrogen, Cat-No. 61870-010), 2,5% Fetal Calf Serum (FCS, Sigma Cat-No. F4135 (FBS)); 100 Units/ml penicillin/100 μg/ml streptomycin (=Pen/Strep from Invitrogen Cat. No. 15140). For the assay the cells were seeded in 384 well plates, 1000 cells per well, in the same medium. The next day the test compounds were added in various concentrations ranging from 30 μM to 0.0015 μM (10 concentrations, 1:3 diluted). After 5 days the CellTiter-Glo™ assay was done according to the instructions of the manufacturer (CellTiter-Glo™ Luminescent Cell Viability Assay, from Promega). In brief: the cell-plate was equilibrated to room temperature for approximately 30 minutes and than the CellTiter-Glo™ reagent was added. The contents were carefully mixed for 15 minutes to induce cell lysis. After 45 minutes the luminescent signal was measured in Victor 2, (scanning multiwell spectrophotometer, Wallac).
1st. Day: • Medium: RPMI 1640 with GlutaMAX™ I (Invitrogen, Cat-Nr. 61870), 5% FCS (Sigma Cat.-No. F4135), Pen/Strep (Invitrogen, Cat No. 15140). • HCT116 (ATCC-No. CCl-247): 1000 cells in 60 μl per well of 384 well plate (Greiner 781098, μClear-plate white) • After seeding incubate plates 24 h at 37° C., 5% CO2 2nd. Day: Induction (Treatment with Compounds, 10 Concentrations):
In order to achieve a final concentration of 30 μM as highest concentration 3.5 μl of 10 mM compound stock solution were added directly to 163 μl media. Then step e) of the dilution procedure described below, was followed.
In order to achieve the second highest to the lowest concentrations, a serial dilution with dilution steps of 1:3 was followed according to the procedure (a-e) as described here below: • a) for the second highest concentration add 10 μl of 10 mM stock solution of compound to 20 μl dimethylsulfoxide (DMSO) • b) dilute 8×1:3 (always 10 μl to 20 μl DMSO) in this DMSO dilution row (results in 9 wells with concentrations from 3333.3 μM to 0.51 μM) • c) dilute each concentration 1:47.6 (3.5 μl compound dilution to 163 μl media) • e) add 10 μl of every concentration to 60 μl media in the cell plate resulting in final concentration of DMSO: 0.3% in every well and resulting in 10 final concentration of compounds ranging from 30 μM to 0.0015 μM. • Each compound is tested in triplicate. • Incubate 120 h (5 days) at 37° C., 5% CO2
• Add 30 μl CellTiter-Glo™ Reagent (prepared from CellTiter-Glo™ Buffer and CellTiter-Glo™ Substrate (lyophilized) purchased from Promega) per well, • shake 15 minutes at room temperature • incubate further 45 minutes at room temperature without shaking
• Victor 2 scanning multiwell spectrophotometer (Wallac), Luminescence mode (0.5 sec/read, 477 nm) • Determine IC50 using a non-linear curve fit (XLfit software (ID Business Solution Ltd., Guilford, Surrey, UK))
`CCN1C(=O)C(C)(C)c2cc3nc(-c4n[nH]c5cc(-c6nc[nH]n6)ccc45)[nH]c3cc21` [Example 2, 5-Ethyl-7,7-dimethyl-2-[6-(1H-[1,2,4]triazol-3-yl)-1H-indazol-3-yl]-5,7-dihydro-3H-imidazo[4,5-f]indol-6-one] displayed an IC50 of 25 to 1500 nM.

Turning to `CCN1C(=O)C(C)(C)c2cc3nc(-c4n[nH]c5cc(/C=C/c6ccccc6)ccc45)[nH]c3cc21` [Example 5, 5-Ethyl-7,7-dimethyl-2-[6-((E)-styryl)-1H-indazol-3-yl]-5,7-dihydro-3H-imidazo[4,5-f]indol-6-one], the IC50 came to 576 nM. In the case of `CCN1C(=O)C(C)(C)c2cc3nc(-c4n[nH]c5cc(-c6cnn(C)c6)ccc45)[nH]c3cc21` [Example 7, 5-Ethyl-7,7-dimethyl-2-[6-(1-methyl-1H-pyrazol-4-yl)-1H-indazol-3-yl]-5,7-dihydro-3H-imidazo[4,5-f]indol-6-one], the IC50 lay within 25 to 1500 nM.

`CCN1C(=O)C(C)(C)c2cc3nc(-c4n[nH]c5cc(-c6cccnc6)ccc45)[nH]c3cc21` [Example 8, 5-Ethyl-7,7-dimethyl-2-(6-pyridin-3-yl-1H-indazol-3-yl)-5,7-dihydro-3H-imidazo[4,5-f]indol-6-one] had an IC50 of 161 nM. The molecule `CCN1C(=O)C(C)(C)c2cc3nc(-c4n[nH]c5cc(/C=C/c6ccc(-c7ccccc7)cc6)ccc45)[nH]c3cc21` [Example 9, 2-[6-((E)-2-Biphenyl-4-yl-vinyl)-1H-indazol-3-yl]-5-ethyl-7,7-dimethyl-5,7-dihydro-3H-imidazo[4,5-f]indol-6-one] displayed an IC50 of 25 to 1500 nM. The figure for `CCN1C(=O)C(C)(C)c2cc3nc(-c4n[nH]c5cc(/C=C/c6ccc(OC)cc6)ccc45)[nH]c3cc21` [Example 10, 5-Ethyl-2-{6-[(E)-2-(4-methoxy-phenyl)-vinyl]-1H-indazol-3-yl}-7,7-dimethyl-5,7-dihydro-3H-imidazo[4,5-f]indol-6-one] is 25 to 1500 nM; for `CCN1C(=O)C(C)(C)c2cc3nc(-c4n[nH]c5cc(-c6ccc(N(C)C)cc6)ccc45)[nH]c3cc21` [Example 12, 2-[6-(4-Dimethylamino-phenyl)-1H-indazol-3-yl]-5-ethyl-7,7-dimethyl-5,7-dihydro-3H-imidazo[4,5-f]indol-6-one] it is 25 to 1500 nM. Take `CCN1C(=O)C(C)(C)c2cc3nc(-c4n[nH]c5cc(-c6ccc(C(C)=O)cc6)ccc45)[nH]c3cc21` [Example 13, 2-[6-(4-Acetyl-phenyl)-1H-indazol-3-yl]-5-ethyl-7,7-dimethyl-5,7-dihydro-3H-imidazo[4,5-f]indol-6-one]: it took 328 nM to reach half-maximal inhibition (IC50). For the molecule `CCN1C(=O)C(C)(C)c2cc3nc(-c4n[nH]c5cc(-c6ccc(OC)nc6)ccc45)[nH]c3cc21` [Example 14, 5-Ethyl-2-[6-(6-methoxy-pyridin-3-yl)-1H-indazol-3-yl]-7,7-dimethyl-5,7-dihydro-3H-imidazo[4,5-f]indol-6-one], the IC50 lay in the range of 25 to 1500 nM. In turn, `CCN1C(=O)C(C)(C)c2cc3nc(-c4n[nH]c5cc(-c6cccs6)ccc45)[nH]c3cc21` [Example 16, 5-Ethyl-7,7-dimethyl-2-(6-thiophen-2-yl-1H-indazol-3-yl)-5,7-dihydro-3H-imidazo[4,5-f]indol-6-one] came in with an IC50 of 25 to 1500 nM. The figure for `CCN1C(=O)C(C)(C)c2cc3nc(-c4n[nH]c5cc(/C=C/c6ccc(Cl)cc6)ccc45)[nH]c3cc21` [Example 18, 2-{6-[(E)-2-(4-Chloro-phenyl)-vinyl]-1H-indazol-3-yl}-5-ethyl-7,7-dimethyl-5,7-dihydro-3H-imidazo[4,5-f]indol-6-one] is 25 to 1500 nM; for `CCN1C(=O)C(C)(C)c2cc3nc(-c4n[nH]c5cc(-c6ccc7c(c6)OCO7)ccc45)[nH]c3cc21` [Example 20, 2-(6-Benzo[1,3]dioxol-5-yl-1H-indazol-3-yl)-5-ethyl-7,7-dimethyl-5,7-dihydro-3H-imidazo[4,5-f]indol-6-one] it is 562 nM. In turn, `CCN1C(=O)C(C)(C)c2cc3nc(-c4n[nH]c5cc(-c6cccc(N(C)C)c6)ccc45)[nH]c3cc21` [Example 21, 2-[6-(3-Dimethylamino-phenyl)-1H-indazol-3-yl]-5-ethyl-7,7-dimethyl-5,7-dihydro-3H-imidazo[4,5-f]indol-6-one] returned an IC50 of 25 to 1500 nM.

Take `CCN1C(=O)C(C)(C)c2cc3nc(-c4n[nH]c5cc(-c6cccc([N+](=O)[O-])c6)ccc45)[nH]c3cc21` [Example 22, 5-Ethyl-7,7-dimethyl-2-[6-(3-nitro-phenyl)-1H-indazol-3-yl]-5,7-dihydro-3H-imidazo[4,5-f]indol-6-one]: the IC50 was 25 to 1500 nM. Take `CCN1C(=O)C(C)(C)c2cc3nc(-c4n[nH]c5ccc(-c6ccc(OC)nc6)cc45)[nH]c3cc21` [Example 24, 5-Ethyl-2-[5-(6-methoxy-pyridin-3-yl)-1H-indazol-3-yl]-7,7-dimethyl-5,7-dihydro-3H-imidazo[4,5-f]indol-6-one; compound with acetic acid]: the 50% inhibitory concentration (IC50) is 25 to 1500 nM.

`CCN1C(=O)C(C)(C)c2cc3nc(-c4n[nH]c5ccc(-c6ccsc6)cc45)[nH]c3cc21` [Example 25, 5-Ethyl-7,7-dimethyl-2-(5-thiophen-3-yl-1H-indazol-3-yl)-5,7-dihydro-3H-imidazo[4,5-f]indol-6-one; compound with acetic acid]: the IC50 lay within 25 to 1500 nM. `CCN1C(=O)C(C)(C)c2cc3nc(-c4n[nH]c5ccc(-c6cnn(C)c6)cc45)[nH]c3cc21` [Example 26, 5-Ethyl-7,7-dimethyl-2-[5-(1-methyl-1H-pyrazol-4-yl)-1H-indazol-3-yl]-5,7-dihydro-3H-imidazo[4,5-f]indol-6-one; compound with acetic acid]: the IC50 is 25 to 1500 nM.

Take `CCN1C(=O)C(C)(C)c2cc3nc(-c4n[nH]c5ccc(-c6cccnc6)cc45)[nH]c3cc21` [Example 27, 5-Ethyl-7,7-dimethyl-2-(5-pyridin-3-yl-1H-indazol-3-yl)-5,7-dihydro-3H-imidazo[4,5-f]indol-6-one]: the half-maximal inhibitory concentration (IC50) fell in the range of 25 to 1500 nM. Take `CCN1C(=O)C(C)(C)c2cc3nc(-c4n[nH]c5cc(-c6cncnc6)ccc45)[nH]c3cc21` [Example 32, 5-Ethyl-7,7-dimethyl-2-(6-pyrimidin-5-yl-1H-indazol-3-yl)-5,7-dihydro-3H-imidazo[4,5-f]indol-6-one]: the IC50 lay within 25 to 1500 nM. For `CCN1C(=O)C(C)(C)c2cc3nc(-c4n[nH]c5cc(-c6ccccn6)ccc45)[nH]c3cc21` [Example 33, 5-Ethyl-7,7-dimethyl-2-(6-pyridin-2-yl-1H-indazol-3-yl)-5,7-dihydro-3H-imidazo[4,5-f]indol-6-one], the IC50 was in the range of 25 to 1500 nM.

Take `CCN1C(=O)C(C)(C)c2cc3nc(-c4n[nH]c5ccc(-c6cncnc6)cc45)[nH]c3cc21` [Example 35, 5-Ethyl-7,7-dimethyl-2-(5-pyrimidin-5-yl-1H-indazol-3-yl)-5,7-dihydro-3H-imidazo[4,5-f]indol-6-one]: the IC50 fell in the range of 25 to 1500 nM.

Molecule `CCN1C(=O)C(C)(C)c2cc3nc(-c4n[nH]c5cc(-c6cn[nH]c6)ccc45)[nH]c3cc21` [Example 37, 5-Ethyl-7,7-dimethyl-2-[6-(1H-pyrazol-4-yl)-1H-indazol-3-yl]-5,7-dihydro-3H-imidazo[4,5-f]indol-6-one] yielded an IC50 of 25 to 1500 nM.
